Measured values from patent US7772180B2, “Hepatitis C virus inhibitors” (Bristol-Myers Squibb Company, priority 2006, dated 2010).
Read-outs that look alike come from different tables or passages of the source.

What was measured:
[1] = target: T1, HCV NS3/4A protease complex, BMS strain (UniProt P27958, species not given/STRAIN_BMS); assay: FRET peptide assay to monitor HCV NS3/4A proteolytic activity (BMS strain); assay type: biochemical, Hepatitis C virus (genotype 1a); details: read-out: IC50 against the NS3/4A BMS strain in the enzyme assay; BMS strain
T1 construct: other: BMS strain; said of H77 and J4L6S; fused on or other part: A three-lysine solubilising tail at the C-terminus of NS4A; A His tag is implied by the pET21b vector and Ni-NTA purification; Both are printed for the H77 and J4L6S constructs and apply to BMS by inference
In short: (§1)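 Purified recombinant NS3/4A complex from genotype 1a BMS strain, 2-3 nM final, with RET S1 EDANS/DABCYL depsipeptide substrate at 2 μM final in HEPES pH 7.5, NaCl, Triton, glycerol, βME. Cleavage followed in real time by fluorescence. For high-potency compounds: 50 μg/ml BSA added, protease lowered to 300 pM.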
T1 sequence (P27958 1027-1657, stated change not applied, one chain of several): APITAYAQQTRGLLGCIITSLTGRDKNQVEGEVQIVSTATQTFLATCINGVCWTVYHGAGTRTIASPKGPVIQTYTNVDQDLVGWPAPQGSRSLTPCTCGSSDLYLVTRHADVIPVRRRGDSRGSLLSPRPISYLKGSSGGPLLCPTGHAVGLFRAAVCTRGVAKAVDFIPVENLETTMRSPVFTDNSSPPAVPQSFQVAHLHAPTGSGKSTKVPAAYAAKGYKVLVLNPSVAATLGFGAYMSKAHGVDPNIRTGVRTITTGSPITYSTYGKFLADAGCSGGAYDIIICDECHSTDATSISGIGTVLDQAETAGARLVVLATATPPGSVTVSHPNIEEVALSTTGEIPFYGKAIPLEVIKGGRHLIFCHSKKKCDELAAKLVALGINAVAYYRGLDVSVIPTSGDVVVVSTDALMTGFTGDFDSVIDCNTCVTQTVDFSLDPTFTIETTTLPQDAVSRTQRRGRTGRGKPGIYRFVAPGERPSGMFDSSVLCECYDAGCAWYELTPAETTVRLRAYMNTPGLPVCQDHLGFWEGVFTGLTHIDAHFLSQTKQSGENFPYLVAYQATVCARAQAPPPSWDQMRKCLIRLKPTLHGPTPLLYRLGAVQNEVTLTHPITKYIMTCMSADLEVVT

[2] = target: T2, HCV NS3/4A protease complex, BMS strain (UniProt P27958, species not given/STRAIN_BMS); assay: as above; assay type: biochemical, Hepatitis C virus (genotype 1a); details: read-out: HCV Protease (IC50); NS3/4A BMS strain; activity range class
T2 construct: other: NS3/4A BMS strain; activity range class; numeric values, unit not given; said of H77 and J4L6S; fused on or other part: A three-lysine solubilising tail at the C-terminus of NS4A; A His tag is implied by the pET21b vector and Ni-NTA purification; Both are printed for the H77 and J4L6S constructs and apply to BMS by inference
In short: as §1
T2 sequence (P27958 1027-1657, stated change not applied, one chain of several): as above

C=C[C@@H]1C[C@]1(NC(=O)[C@@H]1C[C@@H](Oc2nc(N(C)C)cc3cc(OC)ccc23)CN1C(=O)C(Nc1cc(C)cc(C)n1)C(C)(C)C)C(=O)NS(=O)(=O)C1CC1 (single isomer, unassigned) [Compound 18]
IC50 [1]: 3.4 nM
IC50 [2]: 0.6 to 20 nM
